Reference: patent publication US10045952B2, “Anti-Viral Compound and Composition” (Forest Herbs Research Limited, priority 2013, dated 2018)
Values after ≈ are worked out from the molar mass of the structure shown. “Also recorded” adds a separate entry of the source.

Assays:
cells = conditions: literature statement; cited from earlier work
[1] = system: Vero cells and HaCaT cells; test: Cytotoxicity to the cells used in the in vitro anti-viral testing (crystal violet assay); format: cell-based, African Green Monkey; conditions: at the concentrations tested in the anti-viral assay
Procedure: (§1) The crystal violet assay depends on the ability of adherent cell lines such as Vero to stick to the bottom of tissue culture plates. Damaged or dead cells lose their ability to adhere and are removed during a washing process. Viable cells remaining are stained with crystal violet, which is then released from the cells and measured in a spectrophotometer.
(§2) Vero cells were seeded at 3×10^5 cells/ml overnight at 37° C. in 96-well tissue culture plates. When cells had reached confluency, 50 μl of the growth media was removed and replaced with 25 μl of virus and 25 μl of test product. Controls were the same as those used in the xCelligence assay. The assay was terminated after 96 hours which is the length of time taken to see CPE in the control wells.
In this test, it was confirmed that polygodial is not cytotoxic at the concentrations tested because where strong anti-viral activity is present, the cells are alive and uninfected by the virus.

HSV-1 [2] = test: Crystal violet assay, anti-viral activity against HSV-1 in HaCaT cells; format: cell-based, Herpes simplex type 1 virus
Procedure: The crystal violet assay depends on the ability of adherent cell lines such as Vero to stick to the bottom of tissue culture plates. Damaged or dead cells lose their ability to adhere and are removed during a washing process. Viable cells remaining are stained with crystal violet, which is then released from the cells and measured in a spectrophotometer. Vero cells were seeded at 3×10^5 cells/ml overnight at 37° C. in 96-well tissue culture plates. When cells had reached confluency, 50 μl of the growth media was removed and replaced with 25 μl of virus and 25 μl of test product. Controls were the same as those used in the xCelligence assay. The assay was terminated after 96 hours which is the length of time taken to see CPE in the control wells. In the first test (results shown in FIGS. 2A and B), the HSV-1 anti-viral activity of pure polygodial was assessed in comparison to Acyclovir in both Vero cells (FIG. 2A) and HaCaT cells (FIG. 2B).

HSV-1 [3] = test: Crystal violet assay, anti-viral activity against HSV-1 in Vero cells; format: cell-based, Herpes simplex type 1 virus
Procedure: A wild-type HSV-1 obtained from ESR, Upper Hutt, was cultured in Vero (African Green Monkey kidney) tissue culture cells. HSV-1 virus was added to confluent Vero cell monolayers and allowed to infect until >70% cytopathic effect was observed. The infected cultures were then frozen and thawed three times and centrifuged at 3000 rpm for 15 minutes. The supernatant was stored at −80° C. until use.
as §1, §2

[4] = 4 μl/ml Acyclovir, virus only control infection rate about 75%

CC1(C)CCC[C@@]2(C)[C@H]1CC=C(C=O)[C@]2(O)C=O [warburganal]
cytotoxicity (cells): particularly cytotoxic

CC1(C)CCC[C@]2(C)[C@@H](C=O)C(C=O)=CC[C@@H]12 [polygodial]
cytotoxicity [1]: not cytotoxic; also recorded: low cytotoxicity | concentration at which anti-viral effect was comparative to 4 μl/ml Acyclovir (HSV-1 [2]; HaCaT cells): 0.3125 mg/mL | MIC (HSV-1 [3]; Human alphaherpesvirus 1, calculated, HSV-1, cell line not distinguished (Vero and HaCaT)): 600 to 1200 µg/mL (≈ 2.56 to 5.12 mM) | concentration at which anti-viral effect was comparative to 4 μl/ml Acyclovir (HSV-1 [3]; Vero cells): 0.15 mg/mL

Nc1nc2c(ncn2COCCO)c(=O)[nH]1 [Acyclovir, reference compound]
uninfected HaCaT cells, Acyclovir control, second test (FIG. 3B) (HSV-1 [2]; [4]): 75% | uninfected cells, Acyclovir control, first test (FIGS. 2A and B) (HSV-1 [3]; 4 μl/ml Acyclovir, Vero and HaCaT not distinguished, virus only control infection rate about 80%): 80% | uninfected Vero cells, Acyclovir control, second test (FIG. 3A) (HSV-1 [3]; [4]): 60%
